Experiments:
Assay in all cases: relative viability (nuclei count vs DMSO), 5 days (fraction); higher = more cells survive
[1] = compound: COc1ncc(-c2ccc3nccc(-c4ccnnc4)c3c2)cc1NS(=O)(=O)c1ccc(F)cc1F [Omipalisib] + COc1cccc2cc(-c3nc([C@H]4CC[C@H](C(=O)O)CC4)n4ncnc(N)c34)[nH]c12 [OSI-027] (partner 0.5 µM)
In short: (§1)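 One day after seeding in 1536-well plates, lung cancer cell lines were dosed by pin tool. Dosing was either single-drug or a fixed anchor-drug dose plus five library-drug doses (not always all listed) in √10 steps. After 5 days, nuclei were stained in one fix-and-stain step and counted on 4× images, and relative viability is the nuclei count of treated wells over that of vehicle wells, given as the median of duplicate plates.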

[2] = compound: COc1ncc(-c2ccc3nccc(-c4ccnnc4)c3c2)cc1NS(=O)(=O)c1ccc(F)cc1F [Omipalisib] + COc1cc2c(Oc3ccc(NC(=O)C4(C(=O)Nc5ccc(F)cc5)CC4)cc3F)ccnc2cc1OCCCN1CCOCC1 [Foretinib] (partner 0.25 µM)
In short: as §1

[3] = compound: COc1ncc(-c2ccc3nccc(-c4ccnnc4)c3c2)cc1NS(=O)(=O)c1ccc(F)cc1F [Omipalisib] + Cc1nc(Nc2ncc(C(=O)Nc3c(C)cccc3Cl)s2)cc(N2CCN(CCO)CC2)n1 [Dasatinib] (partner 0.075 µM)
In short: as §1

[4] = compound: COc1ncc(-c2ccc3nccc(-c4ccnnc4)c3c2)cc1NS(=O)(=O)c1ccc(F)cc1F [Omipalisib] + Cc1cc(Nc2cc(N3CCN(C)CC3)nc(Sc3ccc(NC(=O)C4CC4)cc3)n2)n[nH]1 [Tozasertib] (partner 0.1 µM)
In short: as §1

[5] = compound: COc1ncc(-c2ccc3nccc(-c4ccnnc4)c3c2)cc1NS(=O)(=O)c1ccc(F)cc1F [Omipalisib] + CCNC(=O)c1noc(-c2cc(C(C)C)c(O)cc2O)c1-c1ccc(CN2CCOCC2)cc1 [Luminespib] (partner 0.01 µM)
In short: as §1

[6] = compound: COc1ncc(-c2ccc3nccc(-c4ccnnc4)c3c2)cc1NS(=O)(=O)c1ccc(F)cc1F [Omipalisib] + N=C(N)NC(=N)NCCc1ccccc1 [Phenformin] (partner 250 µM)
In short: as §1

[7] = compound: COc1ncc(-c2ccc3nccc(-c4ccnnc4)c3c2)cc1NS(=O)(=O)c1ccc(F)cc1F [Omipalisib]
In short: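 Viability was read as treated-well nuclei divided by vehicle-well nuclei, using the median across plates. Lung cancer cell lines in 1536-well plates were kept overnight at 37 °C, pinned with five √10-spaced library-drug doses, and after 5 days were Hoechst-stained, imaged at 4× and counted in MetaXpress. Plates passed only with control CV below 25% and at least one doubling.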

[8] = compound: COc1ncc(-c2ccc3nccc(-c4ccnnc4)c3c2)cc1NS(=O)(=O)c1ccc(F)cc1F [Omipalisib] + CS(=O)(=O)N1CCN(Cc2cc3nc(-c4cccc5[nH]ncc45)nc(N4CCOCC4)c3s2)CC1 [Pictilisib] (partner 1 µM)
In short: as §1

[9] = compound: COc1ncc(-c2ccc3nccc(-c4ccnnc4)c3c2)cc1NS(=O)(=O)c1ccc(F)cc1F [Omipalisib] + CC1(C)CCC(c2ccc(Cl)cc2)=C(CN2CCN(c3ccc(C(=O)NS(=O)(=O)c4ccc(N[C@H](CCN5CCOCC5)CSc5ccccc5)c(S(=O)(=O)C(F)(F)F)c4)cc3)CC2)C1 [Navitoclax] (partner 0.5 µM)
In short: as §1

[10] = compound: COc1ncc(-c2ccc3nccc(-c4ccnnc4)c3c2)cc1NS(=O)(=O)c1ccc(F)cc1F [Omipalisib] + CC(C)C[C@H](NC(=O)[C@H](Cc1ccccc1)NC(=O)c1cnccn1)B(O)O [Bortezomib] (partner 0.002 µM)
In short: as §1

[11] = compound: COc1ncc(-c2ccc3nccc(-c4ccnnc4)c3c2)cc1NS(=O)(=O)c1ccc(F)cc1F [Omipalisib] + Cc1nc(NC(=O)N2CCC[C@H]2C(N)=O)sc1-c1ccnc(C(C)(C)C(F)(F)F)c1 [Alpelisib] (partner 2 µM)
In short: as §1

[12] = compound: COc1ncc(-c2ccc3nccc(-c4ccnnc4)c3c2)cc1NS(=O)(=O)c1ccc(F)cc1F [Omipalisib] + CS(=O)(=O)CCNCc1ccc(-c2ccc3ncnc(Nc4ccc(OCc5cccc(F)c5)c(Cl)c4)c3c2)o1 [Lapatinib] (partner 2 µM)
In short: as §1

[13] = compound: COc1ncc(-c2ccc3nccc(-c4ccnnc4)c3c2)cc1NS(=O)(=O)c1ccc(F)cc1F [Omipalisib] + O=C(c1cc(Cc2n[nH]c(=O)c3ccccc23)ccc1F)N1CCN(C(=O)C2CC2)CC1 [Olaparib] (partner 8 µM)
In short: as §1

[14] = compound: COc1ncc(-c2ccc3nccc(-c4ccnnc4)c3c2)cc1NS(=O)(=O)c1ccc(F)cc1F [Omipalisib] + C[C@]1(O)C[C@@H](c2nc(-c3ccc4ccc(-c5ccccc5)nc4c3)c3c(N)nccn32)C1 [Linsitinib] (partner 1 µM)
In short: as §1

[15] = compound: COc1ncc(-c2ccc3nccc(-c4ccnnc4)c3c2)cc1NS(=O)(=O)c1ccc(F)cc1F [Omipalisib] + C[C@@H](Oc1cc(-c2cnn(C3CCNCC3)c2)cnc1N)c1c(Cl)ccc(F)c1Cl [Crizotinib] (partner 1 µM)
In short: as §1

[16] = compound: COc1ncc(-c2ccc3nccc(-c4ccnnc4)c3c2)cc1NS(=O)(=O)c1ccc(F)cc1F [Omipalisib] + Nc1nc2[nH]cc(CCc3ccc(C(=O)N[C@@H](CCC(=O)O)C(=O)O)cc3)c2c(=O)[nH]1 [Pemetrexed] (partner 0.2 µM)
In short: as §1

[17] = compound: COc1ncc(-c2ccc3nccc(-c4ccnnc4)c3c2)cc1NS(=O)(=O)c1ccc(F)cc1F [Omipalisib] + O=C(CCCCCCC(=O)Nc1ccccc1)NO [Vorinostat] (partner 1 µM)
In short: as §1

Cell Line | relative viability ([2]; first compound 0.0003 µM) | relative viability ([2]; first compound 0.003 µM) | relative viability ([2]; first compound 0.03 µM) | relative viability ([7]; 0.0003 µM) | relative viability ([7]; 0.003 µM) | relative viability ([7]; 0.03 µM) | relative viability ([8]; first compound 0.0003 µM) | relative viability ([8]; first compound 0.003 µM) | relative viability ([8]; first compound 0.03 µM) | relative viability ([10]; first compound 0.0003 µM) | relative viability ([10]; first compound 0.003 µM) | relative viability ([10]; first compound 0.03 µM) | relative viability ([11]; first compound 0.0003 µM) | relative viability ([11]; first compound 0.003 µM) | relative viability ([11]; first compound 0.03 µM) | relative viability ([12]; first compound 0.0003 µM) | relative viability ([12]; first compound 0.003 µM) | relative viability ([12]; first compound 0.03 µM) | relative viability ([14]; first compound 0.0003 µM) | relative viability ([14]; first compound 0.003 µM) | also measured
NCI-H1623 | 0.76 | 0.727 | 0.316 | 0.855 | 0.553 | 0.359 | – | – | – | – | – | – | – | – | – | – | – | – | – | – | relative viability ([1]; first compound 0.0003 µM): 0.398; relative viability ([1]; first compound 0.003 µM): 0.338; relative viability ([1]; first compound 0.03 µM): 0.294; relative viability ([3]; first compound 0.0003 µM): 0.488; relative viability ([3]; first compound 0.003 µM): 0.466; relative viability ([3]; first compound 0.03 µM): 0.266; relative viability ([4]; first compound 0.0003 µM): 0.409; relative viability ([4]; first compound 0.003 µM): 0.354; relative viability ([4]; first compound 0.03 µM): 0.273; relative viability ([5]; first compound 0.0003 µM): 0.399; relative viability ([5]; first compound 0.003 µM): 0.287; relative viability ([5]; first compound 0.03 µM): 0.292; relative viability ([6]; first compound 0.0003 µM): 0.479; relative viability ([6]; first compound 0.003 µM): 0.607; relative viability ([6]; first compound 0.03 µM): 0.247
Calu-6 | 0.894 | 0.844 | 0.754 | 1.09 | 0.986 | 0.861 | 0.996 | 0.879 | 0.775 | 0.982 | 0.951 | 0.865 | 0.889 | 0.864 | 0.755 | 1.05 | 1 | 0.795 | 0.842 | 0.931 | relative viability ([9]; first compound 0.0003 µM): 0.882; relative viability ([9]; first compound 0.003 µM): 0.848; relative viability ([9]; first compound 0.03 µM): 0.452; relative viability ([13]; first compound 0.0003 µM): 0.658; relative viability ([13]; first compound 0.003 µM): 0.625; relative viability ([13]; first compound 0.03 µM): 0.542; relative viability ([14]; first compound 0.03 µM): 0.815; relative viability ([15]; first compound 0.0003 µM): 0.904; relative viability ([15]; first compound 0.003 µM): 0.813; relative viability ([15]; first compound 0.03 µM): 0.681
NCI-H1563 | 0.841 | 0.806 | 0.585 | 0.87 | 0.801 | 0.577 | 0.575 | 0.67 | 0.694 | 0.756 | 0.667 | 0.7 | 0.756 | 0.841 | 0.587 | 0.747 | 0.848 | 0.747 | 0.844 | 0.992 | relative viability ([1]; first compound 0.0003 µM): 0.759; relative viability ([1]; first compound 0.003 µM): 0.583; relative viability ([1]; first compound 0.03 µM): 0.602; relative viability ([3]; first compound 0.0003 µM): 0.484; relative viability ([3]; first compound 0.003 µM): 0.442; relative viability ([3]; first compound 0.03 µM): 0.354; relative viability ([5]; first compound 0.0003 µM): 0.557; relative viability ([5]; first compound 0.003 µM): 0.515; relative viability ([5]; first compound 0.03 µM): 0.445; relative viability ([14]; first compound 0.03 µM): 0.77; relative viability ([16]; first compound 0.0003 µM): 0.714; relative viability ([16]; first compound 0.003 µM): 0.616; relative viability ([16]; first compound 0.03 µM): 0.462; relative viability ([6]; first compound 0.0003 µM): 0.639; relative viability ([6]; first compound 0.003 µM): 0.579; relative viability ([6]; first compound 0.03 µM): 0.535; relative viability ([15]; first compound 0.0003 µM): 0.698; relative viability ([15]; first compound 0.003 µM): 0.796; relative viability ([15]; first compound 0.03 µM): 0.609
IA-LM | 1.27 | 0.997 | 0.683 | 0.888 | 0.764 | 0.355 | 0.45 | 0.317 | 0.197 | 1.01 | 0.818 | 0.258 | 0.785 | 0.793 | 0.373 | 0.95 | 0.703 | 0.251 | 0.636 | 0.571 | relative viability ([9]; first compound 0.0003 µM): 0.92; relative viability ([9]; first compound 0.003 µM): 0.847; relative viability ([9]; first compound 0.03 µM): 0.251; relative viability ([17]; first compound 0.0003 µM): 0.873; relative viability ([17]; first compound 0.003 µM): 0.916; relative viability ([17]; first compound 0.03 µM): 0.25; relative viability ([13]; first compound 0.0003 µM): 0.903; relative viability ([13]; first compound 0.003 µM): 0.85; relative viability ([13]; first compound 0.03 µM): 0.602; relative viability ([14]; first compound 0.03 µM): 0.243; relative viability ([15]; first compound 0.0003 µM): 0.906; relative viability ([15]; first compound 0.003 µM): 0.682; relative viability ([15]; first compound 0.03 µM): 0.288
NCI-H1299 | 1.13 | 1.17 | 1.12 | 1.06 | 1.1 | 1.02 | 0.778 | 0.612 | 0.624 | 1.03 | 1.08 | 1.12 | 1.12 | 1.13 | 1.06 | 1.01 | 0.994 | 1.02 | 0.95 | 1.01 | relative viability ([9]; first compound 0.0003 µM): 1.09; relative viability ([9]; first compound 0.003 µM): 1.05; relative viability ([9]; first compound 0.03 µM): 1.05; relative viability ([13]; first compound 0.0003 µM): 1.05; relative viability ([13]; first compound 0.003 µM): 1.01; relative viability ([13]; first compound 0.03 µM): 0.902; relative viability ([14]; first compound 0.03 µM): 0.909; relative viability ([15]; first compound 0.0003 µM): 0.986; relative viability ([15]; first compound 0.003 µM): 1.03; relative viability ([15]; first compound 0.03 µM): 0.967

Reference: the supplement of paper PMC10307832
